According to PubChem BioAssay (NCI):
Values joined by “and” are separate entries in the source; they are usually repeats but may differ in a detail not shown here. Equal entries are not always repeated.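 Values below derive from 48-hour exposures of cells grown in 96-well plates, with endpoints linearly interpolated between the two concentrations bracketing the appropriate inhibition level. GI50 marks 50% less growth. Definition used: TGI = concentration required for complete inhibition of growth.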

Tests used:
Test in all cases: DTP human tumour cell line panel, 48 h
[1] = tested on: KM12 colon
[2] = tested on: 786-0 renal
[3] = tested on: CAKI-1 renal
[4] = tested on: SW-620 colon
[5] = tested on: HCT-15 colon
[6] = tested on: HL-60(TB) leukemia
[7] = tested on: U251 CNS
[8] = tested on: NCI-H226 lung
[9] = tested on: UACC-62 melanoma
[10] = tested on: HOP-92 NSCLC

SMILES	TGI [1] [µM]	TGI [2] [µM]	TGI [3] [µM]	TGI [4] [µM]	TGI [5] [µM]	TGI [6] [µM]	TGI [7] [µM]	TGI [8]	TGI [9] [µM]	GI50 [1] [µM]	GI50 [2] [µM]	GI50 [3] [µM]	GI50 [4] [µM]	GI50 [5] [µM]	GI50 [10] [µM]	TGI [10] [µM]	GI50 [6] [µM]	GI50 [7] [µM]	GI50 [9] [µM]	GI50 [8] [µM]
COc1cc2oc(-c3ccc(O)cc3)cc(=O)c2c(O)c1C1OC(CO)C(O)C(O)C1O (configuration not stated)	> 100	> 100	> 100	> 100	> 100	> 100	> 100	> 100 µM	> 100	–	–	–	–	–	–	–	–	–	–	–
COc1cc(CNc2nc3cc(N)cc(N)c3nc2-c2ccccc2)cc(OC)c1	73.3	44.2	> 100	> 100	> 100	> 100	> 100	–	30.7	4.28	12.7	16	4.45	19.3	1.15	3.31	3.84	5.08	5.31	–
COc1ccc(OC)c(/C=C/c2nc(=S)n(-c3ccc(Cl)cc3)[nH]2)c1	> 100	> 100	–	> 100	> 100	> 100	> 100	–	> 100	4.03	7.17	–	5.09	4.39	3.56	> 100	3.57	6.88	3.11	–
CCn1cc(C(=O)O)c(=O)c2cc(F)c(N3CCN(S(=O)(=O)c4cccc5ccccc45)CC3)cc21	9.2	20.9	–	> 100	> 100	6.41	> 100	> 100 µM	7.73	2.96	4.5	–	3.57	3.15	1.25	5.43	2.58	3.29	2.25	3.71
COC(=O)CCC(NC(=S)N/N=C/c1cccs1)C(=O)OC (configuration not stated)	> 100	> 100	–	> 100	> 100	> 100	> 100	> 100 µM	> 100	–	–	–	–	–	–	> 100	–	–	–	–
O=c1/c(=C/c2ccccc2[N+](=O)[O-])sc2nnc(-c3cccnc3)n12	> 100	> 100	2.78	24.5	> 100	> 100	–	> 100 µM	> 100	–	–	–	–	–	–	> 100	–	–	–	–
O=[N+]([O-])c1ccc(Cl)c2c([N+](=O)[O-])cccc12	> 10	> 10	–	> 10	> 10	7.16	–	–	> 10	–	–	–	–	–	–	> 10	–	–	–	–
COC(=O)/C=C(/C(=O)OC)C1(C)c2cc(C(=O)OC)c(C(=O)OC)c(N)c2C(=N)N1c1ccccc1 (configuration not stated)	32.9	74.4	56.1	–	> 100	32.6	48.9	89.9 µM	41.2	–	–	–	–	–	–	43.6	–	–	–	–
N#Cc1nc2c(S(=O)(=O)c3ccc(Cl)cc3)c(N)n(Nc3cccc(Cl)c3)c2nc1C#N	–	–	–	0.0733	> 100	0.0871	–	0.322 µM and 0.302 µM	0.336	–	0.0389	0.0311	0.014	0.0982	–	0.099	0.0052	0.0294	0.115	0.106
O=C(NCCNCCO)c1ccc2c(c1)oc1cc3ccccc3c(=O)n12	> 50	> 50	–	> 50	> 50	> 50	42.6	–	> 50	9.32	> 50	–	18.1	38.4	37.6	> 50	25.6	14.7	> 50	–
COC(=O)OC1C(O[C@H]2C[C@H]3[C@@H]4CC=C5C[C@@H](O)CC[C@]5(C)[C@H]4CC[C@]3(C)[C@H]2[C@H](C)C(=O)CCC(C)C)OCC(O)C1OC1OCC(O)C(O)C1OC(=O)c1ccc(OC)cc1 (some centres not stated)	9.86	0.503	0.447	0.277	1.26	–	3.91	–	0.0158	0.039	< 0.00275	0.0191	0.00877	0.137	0.0492	1.87	–	0.00297	0.00621	–
O=C(Nc1cccc(-n2cc(-c3ccncc3)c(-c3cc(O)cc(Cl)c3)n2)c1)c1ccc(N2CCOCC2)c(C(F)(F)F)c1	> 100	10.1	6	7.06	11.3	3.04	6.3	> 100 µM	9.38	1.21	2.24	1.1	2.83	0.559	–	–	0.81	1.4	1.72	28.5
CCN(CC)CCCNc1ccc(C)c2sc3ccccc3c(=O)c12	2.74	2.18	3.06	1.51	0.651	3.63	1.96	–	0.42	1.11	0.822	1.29	0.393	0.248	1.96	16.2	1.71	0.602	0.205	–
COc1nc2c(c(O)c(C)c(=O)n2OC2OCC(OC(C)=O)C(OC(C)=O)C2OC(C)=O)c(=O)n1C (configuration not stated)	> 100	> 100	–	> 100	> 100	–	> 100	> 100 µM	> 100	–	–	–	–	–	–	–	–	–	–	–
O=C(NC1C(=O)NNC1c1cccc([N+](=O)[O-])c1)c1ccccc1 (configuration not stated)	> 100	> 100	–	> 100	–	> 100	> 100	> 100 µM	> 100	–	–	–	–	–	–	> 100	–	–	–	–
CCCCCCCCCCCC[N+]1(CCCCCCCCCCCC)CCCC(C)C1 (configuration not stated)	–	1.66	1.92	1.33	–	0.666	1.29	–	1.27	–	0.412	–	0.303	–	–	–	0.174	0.327	0.244	–
O=C1CC(c2ccccc2)Oc2ccccc21 (configuration not stated)	> 100	> 100	> 100	–	> 100	49.5	> 100	> 100 µM	> 100	–	–	–	–	–	–	62.8	–	–	–	–
